Entries after “also recorded” stand apart in the source; their conditions may differ. Counter-ions that a name gives are not always drawn. Like-named read-outs stand apart in the source and are kept apart here.
Tests used:
[1] = tested on: patients with PD and constipation; experiment: Bowel function / stool related indices, Stage 2; format: in vivo, human; conditions: Stage 2 (daily dosing), at 75 mg
Procedure: Following successful screening, all subjects underwent a 14-day run-in period where the degree of constipation was assessed through a validated daily log (Zinsmeister et al. 2013) establishing baseline CSBMs/week. Subjects with an average of <3 CSBMs/week proceeded to dosing.
(§1) In Stage 2, 34 patients were evaluated.
The primary efficacy outcome variable was whether or not a subject was a “success” or “failure”. This is an endpoint based on subject diary entries for the “fixed dose” period prior to the endpoint assessment defined as average complete stool frequency increase by 1 or more over baseline, or 3 or more complete spontaneous stools/week. The subject was deemed a “success” if s/he met one or more of the criteria listed above, otherwise the subject was deemed a “failure”. The primary analysis was based on all subjects with a baseline assessment and an assessment at the end of the “fixed-dose” period and was a comparison of the proportion of successes with 0.10 (the null hypothesis corresponding to no treatment effect).

[2] = tested on: IPANs (intrinsic primary afferent neuron); conditions: perfusion through the lumen of isolated bowel segment; increased frequency of propulsive peristaltic contractions; cited from earlier work
[3] = tested on: patients with PD and constipation; experiment: CNS / neurological symptoms, Stage 2 (UPDRS, MMSE, PDHQ, BDI-II); format: in vivo, human
From the text: Exploratory end-points, in addition to constipation, included for example, (i) depression assessed using the Beck Depression Inventory (BDI-II) (Steer et al. 2000) and Unified Parkinson's Disease Rating Scale (UPDRS); (ii) cognition assessed using the Mini Mental State Examination (MMSE) (Palsteia et al. 2018), Unified Parkinson's Disease Rating Scale (UPDRS), and Trail Making Test (TMT); (iii) sleep and REM-behavior disorder (RBD) using a daily sleep diary, I-Button Temperature Assessment, a REM sleep behavior disorder (RBD) questionnaire (RBDQ) (Stiasny-Kolster et al. 2007), and the UPDRS; (iv) hallucinations assessed using the PD hallucinations questionnaire (PDHQ) (Papapetropoulos et al. 2008), the UPDRS, and direct questioning; (v) fatigue using the Parkinson's Disease Fatigue Scale (PFS-16) and the UPDRS; (vi) motor functions using the UPDRS; and (vii) non-motor functions using the UPDRS.
(§2) Assessments were made at baseline and at the end of the fixed dose and washout periods. Circadian system status was evaluated by continuously monitoring wrist skin temperature (Thermochron iButton DS1921H; Maxim, Dallas) following published procedures (Sarabia et al. 2008).
An exploratory analysis was done with respect to the sleep data, the body temperature data, mood, fatigue, hallucinations, cognition and other motor and non-motor symptoms of PD. […]

[4] = tested on: patients with PD and constipation; experiment: Prokinetic response (CSBM within 24 hours of dosing), Stage 1; format: in vivo, human; conditions: Stage 1 (single dose)
From the text: (§3) Tolerability limits included diarrhea or vomiting.

C. elegans αS model = conditions: cited from earlier work; for Formation of αS aggregates: in vivo, C. elegans model of PD
[5] = tested on: patients with PD and constipation; experiment: Circadian rhythm of wrist skin temperature; format: in vivo, human; conditions: 12 patients
Procedure: (6) I-Button Temperature Assessment. The I-Button is a small, rugged self-sufficient system that measures temperature and records the results in a protected memory section. The Thermochron I-Button DS1921H (Maxim Integrated, Dallas, Tex.) was used for skin temperature measurement. I-Buttons were programmed to sample every 10 mins., and attached to a double-sided cotton sport wrist band using Velcro, with the sensor face of the I-Button placed over the inside of the wrist, on the radial artery of the dominant hand. Subjects removed and replaced the data logger when necessary (i.e., to have a bath or shower). […] From the collected data, the mesor, amplitude, acrophase (time of peak temperature), Rayleight test (an index of interdaily stability), mean waveforms are calculated.);
as §2
Circadian rhythm of skin temperature was evaluable in 12 patients (i.e., those who had recordings that extended from baseline through washout). Circadian system functionality was evaluated by continuously monitoring wrist skin temperature using a temperature sensor (Thermochron iButton DS1921H; Maxim, Dallas, Tex.) (Sarabia et al. 2008). […]

[6] = tested on: patients with PD and constipation; experiment: Adverse events, Phase 2 trial Stage 2 (daily oral dosing); format: in vivo, human; conditions: Stage 2 (34 dosed), daily oral doses 75-250 mg
Procedure: as §1

[7] = mice; into the duodenum through the biliary tract; cited from earlier work
[8] = cited from earlier work
αS = αS (Homo sapiens, UniProt P37840); conditions: in vitro; cited from earlier work
mouse models of PD = conditions: cited from earlier work
[9] = tested on: patients with PD and constipation; experiment: Adverse events, Phase 2 trial Stage 1 (single escalating oral doses); format: in vivo, human; conditions: Stage 1 (10 dosed), single escalating oral doses 25-200 mg
From the text: as §3

[10] = Oral bioavailability in PD patients (oral PK compared with prior IV PK); format: in vivo, human; conditions: this study
Procedure: PK data were collected on the 10 patients enrolled in Stage 1 and 10 patients enrolled in Stage 2 to determine the extent of systemic absorption. In Stage 1, PK data were obtained at each visit, pre-medication, at 1, 2, 4, 8 and 24 hours (Table 10). In Stage 2, PK was measured on days 1 and 6 of the randomization period pre-medication, at 1, 2, 4 and 8 hours (Table 11).

Compound: CC(C)[C@@H](CC[C@@H](C)[C@H]1CC[C@H]2[C@@H]3[C@H](O)C[C@H]4C[C@@H](NCCCNCCCCN)CC[C@]4(C)[C@H]3CC[C@]12C)OS(=O)(=O)O (single isomer, unassigned) [squalamine (ENT-01), squalamine]
- Prokinetic response rate [1]: 26%
- Effect on enteric sensory neurons [2]: excitation of IPANs
- Patients in whom hallucinations and delusions improved or disappeared during treatment ([3]; Stage 2, 5 patients with hallucinations and 1 with delusions at baseline): 5 of 6
- Improvement of UPDRS Part 1 score ([3]; baseline 11.6 to wash-out 9.5): ~20%
- Cumulative prokinetic response rate ([4]; at 25 mg): 25%
- Cumulative prokinetic response rate ([4]; maximum, at 200 mg): 80%
- Muscle paralysis / motor dysfunction (C. elegans αS model; C. elegans αS model): reverses motor dysfunction; also recorded: complete reversal of muscle paralysis
- Formation of αS aggregates (C. elegans αS model; listed as ENT-01): inhibit the formation of aggregates of αS
- Formation of αS aggregates (C. elegans αS model; listed as squalamine): inhibits the formation of αS aggregates
- Circadian rhythm parameters (IS, RA, CFI, IV) ([5]; fixed dose versus baseline): improved all markers of healthy circadian function
- Circadian rhythm parameters (IS, CFI) ([5]; wash-out period): improvement persisted for several of these circadian parameters
- Diarrhea, Mild [6]: 12(35)^ n, %
- Difficulty falling asleep, Mild [6]: 1(3)^ n, %
- Difficulty falling asleep, Moderate [6]: 0 n, %
- Eye infection, Mild [6]: 1(3)^ n, %
- Eye infection, Moderate [6]: 0 n, %
- Flatulence, Mild [6]: 1(3)^ n, %
- Flatulence, Moderate [6]: 0 n, %
- Headache, Moderate [6]: 0 n, %
- Increased urinary frequency, Moderate [6]: 0 n, %
- Nausea, Mild [6]: 18(52)^ n, %
- Skin lesions-rash, Moderate [6]: 0 n, %
- Urinary retention, Mild [6]: 1(3)^ n, %
- Urinary retention, Moderate [6]: 0 n, %
- Urinary tract infection, Mild [6]: 1(3)^ n, %
- Vomiting, Moderate [6]: 0 n, %
- Worsening acid reflux, Moderate [6]: 0 n, %
- Worsening hemorrhoid, Mild [6]: 1(3)^ n, %
- Worsening hemorrhoid, Moderate [6]: 0 n, %
- Blood in urine, Mild ([6]; unrelated to ENT-01): 0 n, %
- Blood in urine, Moderate ([6]; unrelated to ENT-01): 0 n, %
- Loss of appetite, Mild ([6]; unrelated to ENT-01): 0 n, %
- Loss of appetite, Moderate ([6]; unrelated to ENT-01): 0 n, %
- Clearance and excretion following systemic administration [7]: cleared by the liver and excreted as the intact molecule
- Gastrointestinal motility after intravenous administration ([8]; intravenous, prior studies): not associated with increased gastrointestinal motility
- Systemic blood levels, intravenous versus orally administered squalamine ([8]; prior studies): one thousand-fold greater
- Formation of αS aggregates (αS): inhibits the formation of αS aggregates
- Gastro-intestinal motility (mouse models of PD; oral, mice with constipation due to overexpression of human αS): stimulates gastro-intestinal motility
- Gastrointestinal motility / dysmotility (mouse models of PD; several mouse models of PD): restores gastrointestinal motility; also recorded: reverse gastrointestinal dysmotility
- Abdominal pain, Mild [9]: 2(20) n, %
- Abdominal pain, Moderate [9]: 3(30) n, %
- Diarrhea, Mild [9]: 1(10) n, %
- Diarrhea, Moderate [9]: 3(30) n, %
- Diarrhea, Severe [9]: 0 n, %
- Difficulty falling asleep, Mild [9]: 0 n, %
- Difficulty falling asleep, Moderate [9]: 0 n, %
- Dizziness, Mild [9]: 0 n, %
- Dizziness, Moderate [9]: 0 n, %
- Eye infection, Mild [9]: 0 n, %
- Eye infection, Moderate [9]: 0 n, %
- Flatulence, Mild [9]: 2(20) n, %
- Flatulence, Moderate [9]: 0 n, %
- Headache, Mild [9]: 1(10) n, %
- Headache, Moderate [9]: 0 n, %
- Increased urinary frequency, Mild [9]: 0 n, %
- Increased urinary frequency, Moderate [9]: 0 n, %
- Nausea, Mild [9]: 4(40) n, %
- Nausea, Moderate [9]: 0 n, %
- Skin lesions-rash, Mild [9]: 0 n, %
- Skin lesions-rash, Moderate [9]: 0 n, %
- Urinary retention, Mild [9]: 0 n, %
- Urinary retention, Moderate [9]: 0 n, %
- Urinary tract infection, Mild [9]: 0 n, %
- Urinary tract infection, Moderate [9]: 0 n, %
- Vomiting, Mild [9]: 1(10) n, %
- Vomiting, Moderate [9]: 0 n, %
- Worsening acid reflux, Mild [9]: 0 n, %
- Worsening acid reflux, Moderate [9]: 0 n, %
- Worsening hemorrhoid, Mild [9]: 0 n, %
- Worsening hemorrhoid, Moderate [9]: 0 n, %
- Blood in urine, Mild ([9]; unrelated to ENT-01): 1(10) n, %
- Blood in urine, Moderate ([9]; unrelated to ENT-01): 0 n, %
- Loss of appetite, Mild ([9]; unrelated to ENT-01): 1(10) n, %
- Loss of appetite, Moderate ([9]; unrelated to ENT-01): 0 n, %
- Lower GI bleed, Severe ([9]; unrelated to ENT-01): 0 n, %
- Systemic absorption following oral administration [10]: not significantly absorbed into the systemic circulation
- Systemic absorption following oral administration ([10]; listed as aminosterol): negligible

Compound: CC(C)[C@@H](CC[C@@H](C)[C@H]1CC[C@H]2[C@@H]3[C@H](O)C[C@H]4C[C@@H](NCCCNCCCCN)CC[C@]4(C)[C@H]3CC[C@]12C)OS(=O)(=O)O [Squalamine dilactate salt]
- Well tolerated dose, single and repeat intravenous administration ([8]; intravenous, alone or in combination with other agents, Phase 1 and Phase 2 trials): at least 300 mg/m^2

Reference: patent US20200038420A1, “AMINOSTEROL COMPOSITIONS AND METHODS OF USING THE SAME FOR TREATING DEPRESSION” (Enterin, Inc., priority 2018, published 2020)
